According to patent US11932620B1, “Ethyl 2-[9-(6-flouro-2-hydroxyquinolin-3-yl)-1,8-dioxo-3,4,9,10-tetrahydroacridine-10-yl]-acetate as an antimicrobial compound” (KING FAISAL UNIVERSITY, priority 2023, dated 2024):

What was measured:
Type in all cases: cell-based
Settings in all cases: after 10, 20, 40 and 60 minutes at all dilutions 1:100, 1:200, 1:400, 1:800
Escherichia coli = assay: Antimicrobial screening by agar dilution, Escherichia coli
Description: (§1) The antibacterial properties of the synthesized compound ethyl 2-[9-(6-fluoro-2-hydroxyquinolin-3-yl)-1,8-dioxo-3,4,9,10-tetrahydroacridine-10-yl]-acetate were studied by the method of agar dilution. Test solutions of each compound was prepared in concentration of 1% using dimethylformamide as a solvent then they are diluted in physiological solution to obtain the final experimental dilutions 1:100, 1:200, 1:400, 1:800. The effect of these substances are compared with furacillin in a controllable study. The testing microbes used were gram positive bacteria Staphylococcus aureus, gram negative bacteria Pseudomonas aeruginosa and Escherichia coli and Candida albicans fungus. The experiments used for this survey were meat-pentonlu agar (EPA) for cultivation of bacteria and Saburo environment for the fungus. Each experiment used 1 mL of test solution on each plate […]. Two drops of emulsified with microbes feel were added. All experimental samples were taken from the agar after 10, 20, 40, 60 minutes in the environment on the basis of Patrk planted. The bacteria were cultivated at a temperature of 37° C. for 1 day and the mushroom was kept in a thermostat for 2 hours at a temperature of 28° C. Then results were checked. Results of the control (Furacilin) and the antimicrobial activity for the synthesized compounds are listed in are listed in Table 1.

Staphylococcus aureus = assay: Antimicrobial screening by agar dilution, Staphylococcus aureus
Description: as §1

Pseudomonas aeruginosa = assay: Antimicrobial screening by agar dilution, Pseudomonas aeruginosa
Description: as §1

Candida albicans = assay: Antimicrobial screening by agar dilution, Candida albicans
Description: as §1

Measured: inhibition activity (in words)

CCOC(=O)CN1C2=C(C(=O)CCC2)C(c2cc3cc(F)ccc3nc2O)C2=C1CCCC2=O [ethyl 2-[9-(6-fluoro-2-hydroxyquinolin-3-yl)-1,8-dioxo-3,4,9,10-tetrahydroacridine-10-yl]-acetate]
highest inhibition activity: Escherichia coli | Staphylococcus aureus | Pseudomonas aeruginosa | Candida albicans
